Test results as given in the supplement of paper PMC10627819.

Legend:
S. aureus DSM 20231 = experiment: Bliss interaction score (quartile over a dose matrix) (fitness difference); higher = more antagonism (negative = synergy)
Summary of the method: (§1)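 Each OD595 reading at entry into stationary phase was scaled to the robust mean of the untreated wells on its plate, with a ceiling of 1. These ratios define fitness, and single-drug fitness was inferred from combinations. The Bliss score compares observed fitness with the product-based expectation and is reported as quartiles across all replicate types, technical, biological and donor/recipient.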

S. pneumoniae D39V [1] = experiment: as above
Summary of the method: as §1

B. subtilis 168 [2] = experiment: as above
Summary of the method: as §1

S. aureus Newman [3] = experiment: as above
Summary of the method: as §1

S. pneumoniae D39V [4] = experiment: fitness (endpoint OD595 vs no drug) (fraction); higher = more growth
Summary of the method: (§2)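 Plates with 384 wells were inoculated at OD595 0.01 using 30 µl of TSB, LB Lennox or CY, or 55 µl for S. pneumoniae. Incubation was at 37 °C, with OD595 measured every 30 min for 14 h. Fitness is the stationary-phase transition optical density over the robust mean of no-drug control wells, after first-reading background subtraction; it is capped at 1.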

B. subtilis 168 [5] = experiment: as above
Summary of the method: as §2

S. aureus Newman [6] = experiment: as above
Summary of the method: as §2
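Wherever Bliss interaction score (quartile over a dose matrix) is given: first quartile when negative (synergy) and third quartile when positive (antagonism).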

CC1=C(C(=O)O)N2C(=O)[C@@H](NC(=O)[C@H](N)c3ccccc3)[C@H]2SC1 [Cephalexin] + CN(C)c1cc(NC(=O)CNC(C)(C)C)c(O)c2c1C[C@H]1C[C@H]3[C@H](N(C)C)C(O)=C(C(N)=O)C(=O)[C@@]3(O)C(O)=C1C2=O [Tigecycline]
Settings	Bliss interaction score
B. subtilis 168 [2]	-0.0606
S. aureus DSM 20231	0.0805
S. aureus Newman [3]	0.0193
S. pneumoniae D39V [1]	-0.0787

fitness, one replicate
Settings	first compound 0.125 µg/mL	first compound 0.25 µg/mL	first compound 0.5 µg/mL	first compound 1 µg/mL
B. subtilis 168 [5], partner 0.125 µg/mL	–	0.94	≥ 1	0.995
B. subtilis 168 [5], partner 0.25 µg/mL	–	0.952	0.976	0.975
B. subtilis 168 [5], partner 0.5 µg/mL	–	0.958	≥ 1	0.916
S. pneumoniae D39V [4], partner 0.65 µg/mL	0.933	0.959	≥ 1	–
S. pneumoniae D39V [4], partner 1.3 µg/mL	0.964	0.974	≥ 1	–
S. pneumoniae D39V [4], partner 2.6 µg/mL	0.888	0.915	0.978	–

fitness
Settings	first compound 0.125 µg/mL	first compound 0.25 µg/mL	first compound 0.5 µg/mL	first compound 1 µg/mL	first compound 2 µg/mL	first compound 4 µg/mL
B. subtilis 168 [5], partner 0.039 µg/mL	0.958	0.946	0.942	–	–	–
B. subtilis 168 [5], partner 0.078 µg/mL	0.903	0.902	0.942	–	–	–
B. subtilis 168 [5], partner 0.156 µg/mL	0.951	0.892	0.943	–	–	–
S. aureus Newman [6], partner 0.039 µg/mL	–	0.974	0.992	≥ 1	–	–
S. aureus Newman [6], partner 0.078 µg/mL	–	0.998	≥ 1	≥ 1	–	–
S. aureus Newman [6], partner 0.156 µg/mL	–	0.97	0.994	≥ 1	–	–
S. pneumoniae D39V [4], partner 0.65 µg/mL	–	–	–	0.514	0.0102	0.0229
S. pneumoniae D39V [4], partner 1.3 µg/mL	–	–	–	0.616	0.0542	0.0691
S. pneumoniae D39V [4], partner 2.6 µg/mL	–	–	–	0.616	0.0292	0.0457

CC1=C(C(=O)O)N2C(=O)[C@@H](NC(=O)[C@H](N)c3ccccc3)[C@H]2SC1 [Cephalexin] + CN(N=O)C(=O)N[C@@H](C=O)[C@@H](O)[C@H](O)[C@H](O)CO [Streptozotocin]
Settings	Bliss interaction score
B. subtilis 168 [2]	0.094
S. aureus DSM 20231	-0.0755
S. aureus Newman [3]	0.0503
S. pneumoniae D39V [1]	-0.0789

fitness, one replicate
Settings	first compound 0.125 µg/mL	first compound 0.25 µg/mL	first compound 0.5 µg/mL	first compound 1 µg/mL	first compound 2 µg/mL	first compound 4 µg/mL
B. subtilis 168 [5], partner 0.15 µg/mL	0.918	0.932	≥ 1	–	–	–
B. subtilis 168 [5], partner 0.3 µg/mL	≥ 1	≥ 1	≥ 1	–	–	–
B. subtilis 168 [5], partner 0.6 µg/mL	0.952	0.956	0.967	–	–	–
S. pneumoniae D39V [4], partner 1.2 µg/mL	0.878	0.928	0.953	0.218	0.0084	0.0421
S. pneumoniae D39V [4], partner 2.4 µg/mL	0.922	0.965	0.968	0.313	0.0518	0.0145
S. pneumoniae D39V [4], partner 4.8 µg/mL	0.909	0.901	0.922	0.0033	0	0

fitness, S. aureus Newman [6]
Settings	first compound 0.25 µg/mL	first compound 0.5 µg/mL	first compound 1 µg/mL
partner 0.15 µg/mL	0.874	0.863	0.876
partner 0.3 µg/mL	0.728	0.735	0.786
partner 0.6 µg/mL	0.6	0.591	0.696

CC1=C(C(=O)O)N2C(=O)[C@@H](NC(=O)[C@H](N)c3ccccc3)[C@H]2SC1 [Cephalexin] + CN[C@@H]1[C@H](O)[C@H](NC)[C@H]2O[C@@]3(O)C(=O)C[C@@H](C)O[C@H]3O[C@@H]2[C@H]1O [Spectinomycin]
Settings	Bliss interaction score
B. subtilis 168 [2]	0.0659
S. aureus DSM 20231	0.0503
S. aureus Newman [3]	0.0839
S. pneumoniae D39V [1]	0.0578

fitness, one replicate
Settings	first compound 0.125 µg/mL	first compound 0.25 µg/mL	first compound 0.5 µg/mL	first compound 1 µg/mL	first compound 2 µg/mL	first compound 4 µg/mL
S. aureus Newman [6], partner 16 µg/mL	–	–	–	–	0.969	–
S. aureus Newman [6], partner 32 µg/mL	–	–	0.681	0.713	0.651	–
S. aureus Newman [6], partner 64 µg/mL	–	–	0.127	0.071	0.1	–
S. pneumoniae D39V [4], partner 4 µg/mL	0.874	0.91	0.993	0.474	0.0025	0
S. pneumoniae D39V [4], partner 8 µg/mL	0.892	0.884	0.908	0.587	0.0549	0.0577
S. pneumoniae D39V [4], partner 16 µg/mL	0.875	0.82	0.859	–	–	–

fitness
Settings	first compound 0.125 µg/mL	first compound 0.25 µg/mL	first compound 0.5 µg/mL	first compound 1 µg/mL
B. subtilis 168 [5], partner 2 µg/mL	≥ 1	0.933	0.978	–
B. subtilis 168 [5], partner 4 µg/mL	0.981	0.978	≥ 1	–
B. subtilis 168 [5], partner 8 µg/mL	0.905	0.928	0.884	–
S. aureus Newman [6], partner 4 µg/mL	–	0.904	0.951	0.951
S. aureus Newman [6], partner 8 µg/mL	–	0.982	≥ 1	≥ 1
S. aureus Newman [6], partner 16 µg/mL	–	0.949	0.957	≥ 1
